# Laboratory results taken from patent US11278534B2, “Enantiomers of substituted thiazoles as antiviral compounds” (Innovative Molecules GmbH, priority 2017, dated 2022).
# Read-outs that look alike come from different tables or passages of the source.
# How the values were obtained:
# HSV-1 ACV resistant = assay: activity selectivity assay, HSV-1 ACV resistant; assay type: cell-based
# Protocol: (§1) HSV (HSV-1 Walki, HSV-1F, HSV-2 MS, HSV clinical isolates and HSV resistant strains) was cultivated on Vero cells (ATCC CCL-81) under the following conditions: The cells were grown in M199 medium (5% foetal calf serum, 2 mM glutamine, 100 IU/mL penicillin, 100 μg/mL streptomycin) in cell culture bottles at 37° C. and 5% CO2. The cells were splitted twice per week (1:4). For the infection, the medium was removed, the cells were washed with Hank's solution, detached using 0.05% trypsin, 0.02% EDTA and incubacted at a density of 4×10^5 cells/mL under the above-mentioned conditions for 24 h. The medium was removed and the virus solution was added at an m.o.i of <0.05 in a volume of 2 mL per 175 cm^2 surface. The infected cells were incubated at 37° C., 5% CO2 for 1 h and then the medium was made up to a volume of 50 mL per 175 cm^2 bottle. […] The virus was released by freezing (−80° C.) and thwawing (37° C.) the infected cultures twice. Cell debris was removed by centrifugation (300 g, 10 min, 4° C.) and the supernatant was frozen in aliquots at −80° C.
# (§2) The virus titre was determined using a plaque assay. To this end, Vero cells were seeded in 24-well plates at a density of 4×10^5 cells per well and, after 24 h of incubation (37° C., 5% CO2) infected with 100 μL of inoculum (dilutions (10^−2 to 10^−12) of the virus stock). 1 h after the infection, the medium was removed and the cells were covered with 1 mL of overlay medium (0.5% methylcellulose, 0.22% sodium bicarbonate, 2 mM glutamine, 100 IU/mL penicillin, 100 μg/mL streptomycin, 5% foetal calf serum in MEM-Eagle medium with Earl's salt) and incubated for 3 d in a cell incubator at (37° C., 5% CO2). The cells were then fixated using 4% formaline for 1 h, washed with water, stained with Giemsa for 30 min and then washed and dried. Using a plaque viewer, the virus titre was determined.
# (§3) The antiviral action was determined using a patented (DE10235967 and WO2004/015416) and subsequently published activity selectivity assay (G. Kleymann et al. J. Biomol. Screen. 2004; 9, 578) in 96- or 384-well mictrotitre plates using various cell lines of neuronal, lymphoid and epithelial origin, such as, for example, Vero (african green monkey kidney cells), MEF (murine embryonal fibroblasts), HELF (human embryonal fibroblasts), NT2 (human neuronal cell line) or Jurkat (human lymphoid T-cell line). The relevant experimental details of the above mentioned patent and publication to evaluate the antiviral activity of the invention (disclosed compounds) are described below.
# (§4) The effect of the substances on the spreading of the cytopathogenic effect was determined in comparision to the reference compound acyclovir-sodium (Zovirax™), a clinically approved anti-herpes chemotherapeutic.
# (§5) The compounds (50 mM stock solution dissolved in DMSO) are examined on microtitre plates (for example 96-well flat bottom cell culture plates) at a final concentration of 250 to 0.5 μM or, in case of potent antiviral compounds, 250 to 0.5 nM in 2 to 4 replications (4 to 2 substances per plate). Also examined are toxic and cytostatic effects or precipitation of the compounds. […]
# Human Carboanhydrase II = Human Carboanhydrase II (Homo sapiens, UniProt P00918); assay: carbonic anhydrase activity assay (pH indicator method); assay type: biochemical; conditions: for carbonic anhydrase inhibition: result in words
# HSV-2 = assay: activity selectivity assay, HSV-2 infected Vero cells; assay type: cell-based
# Protocol: as §1, §2, §3, §4, §5
# HSV-1 = assay: activity selectivity assay, HSV-1 infected Vero cells; assay type: cell-based
# Protocol: as §1, §2, §3, §4, §5
# in vivo = assay: in vivo; set-up: species or system mice strain C57BL/6J; conditions: male, C57BL/6J, mouse, po, 10 mg/kg
# Protocol: Pharmcokinetic parameters were determined for Example 7, 7(−), 7(+) and 7c in male mice strain C57BL/6J at an intraveneous (i.v.) dose of 5 mg/kg (5% DMSO in heterologous plasma, 2.5 mL/kg) and an oral dose (p.o) of 10 mg/kg (DMSO/0.5% HPMC (5:95), 5 mL/kg).
smiles,measurement,setting,value
"Cc1nc(N(C)C(=O)Cc2ccc(-c3ccccn3)cc2)sc1S(=N)(=O)C1CC1 (racemic) [Example 7b, N-[5-(Cyclopropylsulfonimidoyl)-4-methyl-thiazol-2-yl]-N-methyl-2-[4-(2-pyridyl)phenyl]acetamide]",IC50,HSV-1 ACV resistant; Human alphaherpesvirus 1,100 to 400 nM
same,IC50,Human Carboanhydrase II,> 10 µM
same,carbonic anhydrase inhibition,Human Carboanhydrase II,no or significantly reduced carbonic anhydrase inhibition
same,IC50,HSV-2; Human alphaherpesvirus 2,250 to 1000 nM
same,IC50,HSV-1; Human alphaherpesvirus 1,100 to 400 nM
"Cc1nc(N(C)C(=O)Cc2ccc(-c3ccccn3)cc2)sc1[S@](C)(=N)=O (racemic) [Example 7c, N-Methyl-N-[4-methyl-5-(methylsulfonimidoyl)thiazol-2-yl]-2-[4-(2-pyridyl)phenyl]acetamide]",AUC,in vivo,22500 ng·h/mL
same,Cmax,in vivo,4290 ng/mL
same,IC50,HSV-1 ACV resistant; Human alphaherpesvirus 1,150 to 600 nM
same,IC50,Human Carboanhydrase II,> 10 µM
same,IC50,HSV-2; Human alphaherpesvirus 2,200 to 1500 nM
same,IC50,HSV-1; Human alphaherpesvirus 1,150 to 600 nM
"Cc1nc(N(C)C(=O)Cc2ccc(-c3cc(F)ccc3F)cc2)sc1[S@](=N)(=O)C1CC1 (single isomer, unassigned) [Example 7a(+), (+)-N-(5-(Cyclopropanesulfonimidoyl)-4-methylthiazol-2-yl)-2-(2′,5′-difluoro-[1,1′-biphenyl]-4-yl)-N-methylacetamide]",IC50,HSV-1 ACV resistant; Human alphaherpesvirus 1,250 to 750 nM
same,IC50,HSV-2; Human alphaherpesvirus 2,500 to 2000 nM
same,IC50,HSV-1; Human alphaherpesvirus 1,250 to 750 nM
"Cc1nc(N(C)C(=O)Cc2ccc(-c3cc(F)ccc3F)cc2)sc1[S@@](=N)(=O)C1CC1 (single isomer, unassigned) [Example 7a(−), (−)-N-(5-(Cyclopropanesulfonimidoyl)-4-methylthiazol-2-yl)-2-(2′,5′-difluoro-[1,1′-biphenyl]-4-yl)-N-methylacetamide]",IC50,HSV-1 ACV resistant; Human alphaherpesvirus 1,20 to 50 nM
same,IC50,HSV-2; Human alphaherpesvirus 2,30 to 300 nM
same,IC50,HSV-1; Human alphaherpesvirus 1,20 to 50 nM
"Cc1nc(N(C)C(=O)Cc2ccc(-c3ccccn3)cc2)sc1[S@](=N)(=O)C1CC1 (single isomer, unassigned) [Example 7b(+), (+)-N-(5-(Cyclopropanesulfonimidoyl)-4-methylthiazol-2-yl)-N-methyl-2-(4-(pyridin-2-yl)phenyl)acetamide]",IC50,HSV-1 ACV resistant; Human alphaherpesvirus 1,500 to 1500 nM
same,IC50,HSV-2; Human alphaherpesvirus 2,2000 to 8000 nM
same,IC50,HSV-1; Human alphaherpesvirus 1,500 to 1500 nM
"Cc1nc(N(C)C(=O)Cc2ccc(-c3ccccn3)cc2)sc1[S@@](=N)(=O)C1CC1 (single isomer, unassigned) [Example 7b(−), (−)-N-(5-(Cyclopropanesulfonimidoyl)-4-methylthiazol-2-yl)-N-methyl-2-(4-(pyridin-2-yl)phenyl)acetamide]",IC50,HSV-1 ACV resistant; Human alphaherpesvirus 1,75 to 250 nM
same,IC50,HSV-2; Human alphaherpesvirus 2,200 to 750 nM
same,IC50,HSV-1; Human alphaherpesvirus 1,75 to 250 nM
"Cc1nc(N(C)C(=O)Cc2ccc(-c3ccccn3)cc2)sc1[S@](C)(=N)=O (single isomer, unassigned) [Example 7c(+), (+)-N-Methyl-N-(4-methyl-5-(S-methylsulfonimidoyl)thiazol-2-yl)-2-(4-(pyridin-2-yl)phenyl)acetamide]",AUC,in vivo,31200 ng·h/mL
same,Cmax,in vivo,5700 ng/mL
same,IC50,HSV-1 ACV resistant; Human alphaherpesvirus 1,300 to 750 nM
same,IC50,Human Carboanhydrase II,> 10 µM
same,carbonic anhydrase inhibition,Human Carboanhydrase II,no or significantly reduced carbonic anhydrase inhibition
same,IC50,HSV-2; Human alphaherpesvirus 2,500 to 1500 nM
same,IC50,HSV-1; Human alphaherpesvirus 1,300 to 750 nM
"Cc1nc(N(C)C(=O)Cc2ccc(-c3ccccn3)cc2)sc1[S@@](C)(=N)=O (single isomer, unassigned) [Example 7c(−), (−)-N-Methyl-N-(4-methyl-5-(S-methylsulfonimidoyl)thiazol-2-yl)-2-(4-(pyridin-2-yl)phenyl)acetamide]",AUC,in vivo,38000 ng·h/mL
same,Cmax,in vivo,6650 ng/mL
same,IC50,HSV-1 ACV resistant; Human alphaherpesvirus 1,75 to 300 nM
same,IC50,Human Carboanhydrase II,> 10 µM
same,carbonic anhydrase inhibition,Human Carboanhydrase II,no or significantly reduced carbonic anhydrase inhibition
same,IC50,HSV-2; Human alphaherpesvirus 2,100 to 750 nM
same,IC50,HSV-1; Human alphaherpesvirus 1,75 to 300 nM
"CN(C(=O)Cc1ccc(-c2cc(F)ccc2F)cc1)c1nc(CO)c([S@@](C)(=N)=O)s1 (single isomer, unassigned) [Example 10a, 2-(2′,5′-Difluoro-[1,1′-biphenyl]-4-yl)-N-(4-(hydroxymethyl)-5-(S-methylsulfonimidoyl)thiazol-2-yl)-N-methylacetamide]",IC50,HSV-1 ACV resistant; Human alphaherpesvirus 1,50 to 250 nM
same,IC50,HSV-2; Human alphaherpesvirus 2,1000 to 5000 nM
same,IC50,HSV-1; Human alphaherpesvirus 1,50 to 250 nM
"CN(C(=O)Cc1ccc(-c2cc(F)ccc2F)cc1)c1nc(CO)c([S@](C)(=N)=O)s1 (single isomer, unassigned) [Example 10b, 2-(2′,5′-Difluoro-[1,1′-biphenyl]-4-yl)-N-(4-(hydroxymethyl)-5-(S-methylsulfonimidoyl)thiazol-2-yl)-N-methylacetamide]",IC50,HSV-1 ACV resistant; Human alphaherpesvirus 1,1000 to 5000 nM
same,IC50,HSV-2; Human alphaherpesvirus 2,5000 to 25000 nM
same,IC50,HSV-1; Human alphaherpesvirus 1,1000 to 5000 nM
"Cc1nc(N(C)C(=O)Cc2ccc(-c3ccccn3)cc2)sc1[S@](C)(=N)=O (stereo in doubt) [Example 7c, N-Methyl-N-[4-methyl-5-(methylsulfonimidoyl)thiazol-2-yl]-2-[4-(2-pyridyl)phenyl]acetamide]",carbonic anhydrase inhibition,Human Carboanhydrase II,no or significantly reduced carbonic anhydrase inhibition
"Nc1nc2c(ncn2COCCO)c(=O)[nH]1 [Acyclovir, reference compound]",IC50,HSV-1 ACV resistant; HSV-1 ACV resistant,> 25000 nM
same,IC50,HSV-2,500 to 3000 nM
same,IC50,HSV-1,500 to 3000 nM
"Cc1nc(N(C)C(=O)Cc2ccc(-c3cc(F)ccc3F)cc2)sc1[S@](C)(=N)=O [Example 7(+), (+)-(R)-2-(2′,5′-Difluoro-[1,1′-biphenyl]-4-yl)-N-methyl-N-(4-methyl-5-(S-methylsulfonimidoyl)thiazol-2-yl)acetamide]",IC50,HSV-1 ACV resistant; Human alphaherpesvirus 1,30 to 200 nM
same,IC50,Human Carboanhydrase II,> 10 µM
same,carbonic anhydrase inhibition,Human Carboanhydrase II,no or significantly reduced carbonic anhydrase inhibition
same,IC50,HSV-2; Human alphaherpesvirus 2,30 to 200 nM
same,IC50,HSV-1; Human alphaherpesvirus 1,30 to 200 nM
"Cc1nc(N(C)C(=O)Cc2ccc(-c3cc(F)ccc3F)cc2)sc1S(=N)(=O)C1CC1 (stereo not shown) [Example 7a, N-[5-(Cyclopropylsulfonimidoyl)-4-methyl-thiazol-2-yl]-2-[4-(2,5-difluorophenyl)phenyl]-N-methyl-acetamide]",IC50,HSV-1 ACV resistant; Human alphaherpesvirus 1,30 to 100 nM
same,IC50,HSV-2; Human alphaherpesvirus 2,50 to 500 nM
same,IC50,HSV-1; Human alphaherpesvirus 1,30 to 100 nM
"CC(=O)N=[S@](C)(=O)c1sc(N(C)C(=O)Cc2ccc(-c3cc(F)ccc3F)cc2)nc1C [Example 8, (R)-N-(5-(N-Acetyl-S-methylsulfonimidoyl)-4-methylthiazol-2-yl)-2-(2′,5′-difluoro-[1,1′-biphenyl]-4-yl)-N-methylacetamide]",IC50,HSV-1 ACV resistant; Human alphaherpesvirus 1,10000 to 50000 nM
same,IC50,HSV-2; Human alphaherpesvirus 2,50000 to 250000 nM
same,IC50,HSV-1; Human alphaherpesvirus 1,10000 to 50000 nM
